Consider 4 molecules from US9962331B2, “Composition containing horse chestnut extract” (priority 2001, dated 2018).

Read-outs that look alike come from different tables or passages of the source.

For this assay, the system named is human umbilical vein endothelial cells (HUVECs). Description: Tube formation assay of HUVEC on Matrigel. Format: cell-based. To be noted: for formation of microvascular network of HUVEC (pictures): FIGS. 6-9; for inhibition at 50 µM: Homo sapiens, read-out: Percent Inhibition. On the procedure: In order to do the tube formation assay, blood vessel endothelial cells, human umbilical vein endothelial cells (HUVECs), were isolated from freshly obtained cords after cesarean section according to Grant's method (Grants D S, et al., Cell, 58, pp933-943, 1989). They were identified by immunocytochemial staining with anti-Factor VIII antibody. HUVECs grown with Matrigel (BD Bioscience, Bedford, Mass., USA), were treated with the above Horse chestnut extract of the Example 1, and further incubated at 37° C. for 8-16 hrs. As a control, above procedure was repeated without Horse chestnut extract.
In order to identify the component responsible for anti-aniogenic acvity of Horse chestnut extract, components identified as in EXAMPLE 2, were subjected to the tube formation assay as described above. Since those chemicals are not soluble in water, they were dissolved in dimethyl sulfoxide (DMSO). In order to exclude the effect of solvent, HUVECs treated with the same amount of DMSO were used as a control. FIG. 5 is a picture of the 1% DMSO-treated HUVEC control, and FIGS. 6-9 are pictures showing the effect of individual components of the Horse chestnut on tube formation. […] Tubular network was disconnected by treatment with 50 μM of quercitrin, and esculetin.
The area of the tube was determined by image analysis program Image-Pro Plus® (Media Cybernetics, USA), and the results were summarized in Tables 1 and 2. […]

Setting [1] is: HUVEC tube formation, 50 μM, vs 1% DMSO control.
Setting [2] is: HUVEC, 50 μM, vs 1% DMSO control.

In the case of aescin, where the note is “50 μM”, the “formation of microvascular network of HUVEC (pictures)” value (from here on “formation”) is “completely inhibited”. The “Percent Inhibition” value under setting [1] came to 100. Further, the “Area of the Tube (%)” value under setting [2] turned out to be 0%.
Usually inhibition stands for the share of the control response that was lost under treatment. With `O=c1ccc2cc(O[C@@H]3O[C@H](CO)[C@@H](O)[C@H](O)[C@H]3O)c(O)cc2o1` [Esculin, esculin], where the note is “50 μM”, the “formation” value is reported as “less than that by esculetin”. Besides, the “Area of the Tube (%)” value under setting [2] is 85%. Further, the inhibition at 50 µM (HUVEC) amounted to 15%.
`O=c1ccc2cc(O)c(O)cc2o1` [Esculetin, esculetin]: the “formation” value (50 μM) is “disconnected”. Besides, the “Area of the Tube (%)” value under setting [2] was 17%. For the same molecule, the inhibition at 50 µM under setting [1] came to 83%.
`C[C@@H]1O[C@@H](Oc2c(-c3ccc(O)c(O)c3)oc3cc(O)cc(O)c3c2=O)[C@H](O)[C@H](O)[C@H]1O` [Quercitrin, quercitrin]: the “Area of the Tube (%)” value under setting [2] came out at 36%. For the same molecule, the inhibition at 50 µM (HUVEC) came out at 64%.
